Earlier results as cited in patent publication US9980959B2, “Method and composition for treating rhinitis” (Biolipox AB, priority 2004, dated 2018).

Tests used:
[1] = nasal spray
[2] = mist administered to the lung with a nebulizer

O=C(O)COCCN1CCN(C(c2ccccc2)c2ccc(Cl)cc2)CC1 (stereo not shown) [cetirizine, [2-{4-[(4-chlorophenyl)-phenylmethyl]-1-piperazinyl}ethoxy]acetic acid]
Symptoms and nasal peak flow after an allergen challenge [1]: reduce symptoms and increase nasal peak flow
Protective effect in exercise-induced asthma [2]: good protective effect
Effect on symptoms in perennial allergic rhinitis (nasal spray 0.625, 1.25, 2.5 mg/mL three times a day for two weeks): Some effect
Incidence of side effects (nasal events) (nasal spray versus placebo): no difference in incidence between the placebo and the cetirizine-treated groups
